Results published in article PMC12244496 (bioRxiv, 2025).
Where no end group is shown, it is not given here. [ ]: non-standard residue; d: D form. Lys(Me3) = C[N+](C)(C)CCCC[C@H](N)C(=O)O

Experiments:
mESCs = test: Recovery of H3K27me1/2/3 in mESCs after tazemetostat treatment; type: cell-based, mouse; conditions: 10 μM for 7 days
core PRC2 = core PRC2 (Homo sapiens, UniProt O75530+Q15910); test: PRC2-core activity assay; type: biochemical; conditions: 50 μM peptide; histone H3 peptide (residues 21–44) substrate
Sequence of core PRC2 (Q15910 whole entry, the tested form may be a part): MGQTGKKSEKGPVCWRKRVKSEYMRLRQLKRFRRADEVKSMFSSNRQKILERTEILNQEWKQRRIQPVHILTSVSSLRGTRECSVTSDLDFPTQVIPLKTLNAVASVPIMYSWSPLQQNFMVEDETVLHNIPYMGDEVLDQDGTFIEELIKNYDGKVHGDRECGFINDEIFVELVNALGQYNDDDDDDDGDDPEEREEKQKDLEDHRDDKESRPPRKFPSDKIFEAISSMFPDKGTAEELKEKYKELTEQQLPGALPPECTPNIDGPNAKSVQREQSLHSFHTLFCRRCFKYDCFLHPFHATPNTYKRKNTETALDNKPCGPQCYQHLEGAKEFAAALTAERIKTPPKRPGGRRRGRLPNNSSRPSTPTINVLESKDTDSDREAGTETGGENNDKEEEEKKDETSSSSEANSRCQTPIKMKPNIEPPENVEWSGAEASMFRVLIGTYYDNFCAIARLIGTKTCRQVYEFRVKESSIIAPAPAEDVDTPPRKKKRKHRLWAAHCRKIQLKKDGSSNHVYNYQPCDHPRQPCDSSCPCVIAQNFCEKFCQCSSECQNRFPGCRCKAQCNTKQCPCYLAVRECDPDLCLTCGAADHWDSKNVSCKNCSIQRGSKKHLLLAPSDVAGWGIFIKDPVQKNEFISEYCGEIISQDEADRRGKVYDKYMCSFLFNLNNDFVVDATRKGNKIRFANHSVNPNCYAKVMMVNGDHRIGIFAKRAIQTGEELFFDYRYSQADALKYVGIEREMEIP
Sequence of core PRC2 (O75530 whole entry, the tested form may be a part): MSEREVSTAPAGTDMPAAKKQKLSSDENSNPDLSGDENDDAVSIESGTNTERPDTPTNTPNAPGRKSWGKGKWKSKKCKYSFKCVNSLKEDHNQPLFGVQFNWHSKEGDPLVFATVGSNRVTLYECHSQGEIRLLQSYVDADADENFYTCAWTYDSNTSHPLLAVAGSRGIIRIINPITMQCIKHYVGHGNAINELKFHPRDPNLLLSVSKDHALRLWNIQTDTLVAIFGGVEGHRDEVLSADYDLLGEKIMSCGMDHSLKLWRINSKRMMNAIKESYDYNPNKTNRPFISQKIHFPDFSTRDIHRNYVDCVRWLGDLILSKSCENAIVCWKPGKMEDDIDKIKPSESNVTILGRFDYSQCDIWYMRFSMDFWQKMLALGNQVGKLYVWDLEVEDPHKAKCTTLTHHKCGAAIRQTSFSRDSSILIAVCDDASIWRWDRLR
Sequence of core PRC2 (Q15022 whole entry partner, the tested form may be a part): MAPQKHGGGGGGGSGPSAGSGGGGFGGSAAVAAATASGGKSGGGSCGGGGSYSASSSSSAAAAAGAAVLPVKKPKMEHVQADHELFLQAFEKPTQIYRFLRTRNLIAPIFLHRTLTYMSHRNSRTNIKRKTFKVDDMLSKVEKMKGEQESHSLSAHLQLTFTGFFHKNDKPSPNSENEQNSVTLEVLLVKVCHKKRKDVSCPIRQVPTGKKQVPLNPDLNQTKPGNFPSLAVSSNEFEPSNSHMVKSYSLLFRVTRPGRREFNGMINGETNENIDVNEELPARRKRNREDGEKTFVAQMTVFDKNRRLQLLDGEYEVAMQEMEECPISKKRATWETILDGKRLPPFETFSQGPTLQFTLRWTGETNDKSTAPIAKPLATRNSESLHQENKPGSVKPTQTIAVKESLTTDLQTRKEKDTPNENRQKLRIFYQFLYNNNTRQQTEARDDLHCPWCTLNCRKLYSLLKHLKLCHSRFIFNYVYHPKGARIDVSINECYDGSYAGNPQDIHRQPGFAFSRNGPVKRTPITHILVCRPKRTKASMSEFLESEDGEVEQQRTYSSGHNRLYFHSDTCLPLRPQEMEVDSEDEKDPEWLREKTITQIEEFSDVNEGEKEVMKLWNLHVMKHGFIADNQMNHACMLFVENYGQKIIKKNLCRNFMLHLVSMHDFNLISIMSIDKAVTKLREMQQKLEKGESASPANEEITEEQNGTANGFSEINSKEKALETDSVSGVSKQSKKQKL
Sequence of core PRC2 (Q09028 whole entry partner, the tested form may be a part): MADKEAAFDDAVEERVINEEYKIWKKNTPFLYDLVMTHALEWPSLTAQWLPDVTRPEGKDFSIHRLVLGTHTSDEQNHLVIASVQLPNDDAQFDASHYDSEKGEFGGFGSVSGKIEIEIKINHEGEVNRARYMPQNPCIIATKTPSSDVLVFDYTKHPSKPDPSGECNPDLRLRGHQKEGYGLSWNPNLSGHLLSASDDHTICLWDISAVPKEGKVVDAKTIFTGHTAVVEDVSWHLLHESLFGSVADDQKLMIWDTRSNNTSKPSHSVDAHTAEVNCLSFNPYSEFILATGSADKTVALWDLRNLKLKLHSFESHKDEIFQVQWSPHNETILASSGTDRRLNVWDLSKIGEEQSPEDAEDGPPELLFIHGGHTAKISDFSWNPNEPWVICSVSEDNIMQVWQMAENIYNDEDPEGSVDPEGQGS

| Molecule | depletion of H3K27me1/2/3 (mESCs) | PRC2 activity (%) (core PRC2) |
| --- | --- | --- |
| CCN(c1cc(-c2ccc(CN3CCOCC3)cc2)cc(C(=O)NCc2c(C)cc(C)[nH]c2=O)c1C)C1CCOCC1 [tazemostat, tazemetostat] | completely depleted |  |
| KAAR[Lys(Me3)]SAPA [compound 2] |  | 583±28 |
| TKAAR[Lys(Me3)]SA [compound 4] |  | 485±93 |
